Source: paper PMC12846068, “Insights into Transport Function of the Murine Organic Anion-Transporting Polypeptide OATP1B2 by Comparison with Its Rat and Human Orthologues” (Toxics, 2025)

How the values were obtained:
[1] = biological target: T1, mOATP1B2 (Mus musculus, UniProt Q9JJL3); experiment: mOATP1B2-mediated uptake of [3H]-E1S and [3H]-TCA in overexpressing HEK293 cells; assay type: cell-based
T1 construct: The full-length mOATP1B2 and rOATP1B2 consist of 689 and 678 amino acids
T1 sequence (Q9JJL3 1-689): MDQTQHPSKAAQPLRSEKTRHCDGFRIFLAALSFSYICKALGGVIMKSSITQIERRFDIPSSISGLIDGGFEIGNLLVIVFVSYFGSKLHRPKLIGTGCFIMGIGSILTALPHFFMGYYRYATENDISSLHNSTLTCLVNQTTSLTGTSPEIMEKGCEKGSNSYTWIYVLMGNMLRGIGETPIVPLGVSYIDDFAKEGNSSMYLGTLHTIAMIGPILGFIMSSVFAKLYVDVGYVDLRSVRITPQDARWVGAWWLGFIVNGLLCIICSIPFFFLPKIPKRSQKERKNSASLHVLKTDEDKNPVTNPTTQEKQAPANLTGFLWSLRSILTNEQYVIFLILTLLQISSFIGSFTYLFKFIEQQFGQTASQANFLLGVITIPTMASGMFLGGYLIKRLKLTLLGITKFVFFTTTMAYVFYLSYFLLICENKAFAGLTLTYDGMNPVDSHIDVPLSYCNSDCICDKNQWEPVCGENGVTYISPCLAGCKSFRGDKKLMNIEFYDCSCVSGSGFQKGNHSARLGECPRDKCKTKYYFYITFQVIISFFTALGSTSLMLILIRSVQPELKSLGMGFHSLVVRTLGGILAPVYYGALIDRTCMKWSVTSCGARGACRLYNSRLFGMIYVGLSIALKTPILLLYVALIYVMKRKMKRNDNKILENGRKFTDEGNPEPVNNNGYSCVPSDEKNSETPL
Procedure: (§1) To perform transporter-mediated uptake, both stably transfected cells and control cells (seeding density 2 × 10^5) were cultured for three days in 24-well plates (coated with 0.1 mg/mL poly-D-lysine hydrobromide). Then, 24 h before the start of the transport experiment, the gene expression of mOapt1b2 and rOATP1B2 was induced by 1 µg/mL tetracycline. At the beginning of each experiment, the cells were washed three times with pre-warmed 0.5 mL HBSS incubation buffer (supplemented with 20 mM HEPES, pH 7.4) and equilibrated for at least 20 min as described previously [27]. After aspirating the incubation buffer, the uptake process was started by adding 200 µL HBSS incubation buffer containing radio-labeled and unlabeled substances to each well and incubated at 37 °C for an appropriate time. The uptake was stopped by aspirating the reaction mixture and washing the cells 3 times with 0.4 mL ice-cold PBS buffer. After cell lysis with 0.6 mL of 1N NaOH overnight, the whole content of each well (0.6 mL) was transferred to a 6 mL scintillation vial (Sarstedt) containing 2.5 mL scintillation liquid (Rotiszint®eco plus, Carl Roth). The ^3H content was measured in a scintillation counter (Perkin Elmer TRICarb 2810 or HIDEX 600SL). […]
(§2) The absolute amount (pmol) of the radio-labeled probe substrate uptake was calculated and related to the determined protein values as well as the incubation time. […]

[2] = biological target: T2, rOATP1B2 (Rattus norvegicus, UniProt Q9QZX8); experiment: rOATP1B2-mediated uptake of [3H]-E1S and [3H]-TCA in overexpressing HEK293 cells; assay type: cell-based; settings: rOATP1B2, 1 µM substrate; E1S 5 min, TCA 10 min
T2 construct: The full-length mOATP1B2 and rOATP1B2 consist of 689 and 678 amino acids
T2 sequence (Q9QZX8 1-687): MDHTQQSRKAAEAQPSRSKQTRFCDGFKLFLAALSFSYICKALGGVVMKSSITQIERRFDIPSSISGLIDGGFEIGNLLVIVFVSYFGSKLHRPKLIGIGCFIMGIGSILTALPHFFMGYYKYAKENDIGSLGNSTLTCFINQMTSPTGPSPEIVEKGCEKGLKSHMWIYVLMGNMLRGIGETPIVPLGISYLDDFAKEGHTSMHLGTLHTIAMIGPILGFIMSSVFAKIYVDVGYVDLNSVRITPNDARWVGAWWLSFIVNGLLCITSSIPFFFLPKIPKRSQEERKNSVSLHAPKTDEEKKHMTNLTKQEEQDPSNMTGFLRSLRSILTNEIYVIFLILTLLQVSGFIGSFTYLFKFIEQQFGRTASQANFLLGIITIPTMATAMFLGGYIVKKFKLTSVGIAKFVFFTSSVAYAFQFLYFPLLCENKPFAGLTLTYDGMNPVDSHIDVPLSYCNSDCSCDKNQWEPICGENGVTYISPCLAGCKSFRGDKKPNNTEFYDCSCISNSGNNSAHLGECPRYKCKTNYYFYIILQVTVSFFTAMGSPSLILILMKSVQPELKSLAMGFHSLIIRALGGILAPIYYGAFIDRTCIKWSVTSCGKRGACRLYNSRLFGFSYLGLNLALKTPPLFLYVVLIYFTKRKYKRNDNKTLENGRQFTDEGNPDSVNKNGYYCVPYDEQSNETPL
Procedure: as §1, §2

[3] = biological target: T3, hOATP1B3 (Homo sapiens, UniProt Q9NPD5); experiment: hOATP1B3-mediated uptake of [3H]-E1S and [3H]-TCA in transfected HEK293 cells
T3 sequence (Q9NPD5 1-702): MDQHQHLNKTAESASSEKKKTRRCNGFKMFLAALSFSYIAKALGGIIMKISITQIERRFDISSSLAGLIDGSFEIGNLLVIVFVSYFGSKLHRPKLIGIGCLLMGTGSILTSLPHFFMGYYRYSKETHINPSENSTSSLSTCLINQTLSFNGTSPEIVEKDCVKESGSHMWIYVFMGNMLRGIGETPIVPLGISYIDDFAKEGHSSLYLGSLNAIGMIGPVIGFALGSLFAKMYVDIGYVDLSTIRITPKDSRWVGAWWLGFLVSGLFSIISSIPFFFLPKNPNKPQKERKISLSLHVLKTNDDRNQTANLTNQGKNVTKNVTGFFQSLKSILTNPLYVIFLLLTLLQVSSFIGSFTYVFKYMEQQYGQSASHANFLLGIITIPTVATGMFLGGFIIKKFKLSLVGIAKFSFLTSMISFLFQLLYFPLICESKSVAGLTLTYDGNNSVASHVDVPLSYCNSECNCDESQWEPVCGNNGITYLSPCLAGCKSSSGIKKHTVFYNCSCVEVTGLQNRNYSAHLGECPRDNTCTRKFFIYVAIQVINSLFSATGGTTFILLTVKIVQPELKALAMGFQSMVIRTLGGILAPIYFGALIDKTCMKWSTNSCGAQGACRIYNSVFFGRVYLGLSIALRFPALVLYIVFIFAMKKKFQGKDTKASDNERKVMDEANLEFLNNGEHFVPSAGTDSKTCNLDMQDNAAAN
Procedure: To perform transporter-mediated uptake, both stably transfected cells and control cells (seeding density 2 × 10^5) were cultured for three days in 24-well plates (coated with 0.1 mg/mL poly-D-lysine hydrobromide). Then, 24 h before the start of the transport experiment, the gene expression of mOapt1b2 and rOATP1B2 was induced by 1 µg/mL tetracycline. At the beginning of each experiment, the cells were washed three times with pre-warmed 0.5 mL HBSS incubation buffer (supplemented with 20 mM HEPES, pH 7.4) and equilibrated for at least 20 min as described previously [27]. After aspirating the incubation buffer, the uptake process was started by adding 200 µL HBSS incubation buffer containing radio-labeled and unlabeled substances to each well and incubated at 37 °C for an appropriate time. The uptake was stopped by aspirating the reaction mixture and washing the cells 3 times with 0.4 mL ice-cold PBS buffer. After cell lysis with 0.6 mL of 1N NaOH overnight, the whole content of each well (0.6 mL) was transferred to a 6 mL scintillation vial (Sarstedt) containing 2.5 mL scintillation liquid (Rotiszint®eco plus, Carl Roth). The ^3H content was measured in a scintillation counter (Perkin Elmer TRICarb 2810 or HIDEX 600SL).
To verify the results for the human transporters, both substrates were tested at a concentration of 0.01 µM. All experiments were conducted at least on two separate days as triplicates.
The absolute amount (pmol) of the radio-labeled probe substrate uptake was calculated and related to the determined protein values as well as the incubation time. The transporter-mediated uptake rate (net uptake) was obtained by subtracting the uptake rate in control (vector only)-transfected HEK293 cells from the uptake rate in transporter-transfected cells. To calculate the Km of the respective substrate, the transporter-mediated net uptake (pmol/mg protein/min) was plotted against the substrate concentrations in SigmaPlot 13. Weighted nonlinear regression was used for curve fitting (ligand binding with one site saturation).

**Q.** How did the “uptake compared to vector-transfected control cells” value ([1]; mOATP1B2, 1 µM substrate, E1S 5 min, TCA 10 min) turn out when `C[C@H](CCC(=O)NCCS(=O)(=O)O)[C@H]1CC[C@H]2[C@@H]3[C@H](O)C[C@@H]4C[C@H](O)CC[C@]4(C)[C@H]3C[C@H](O)[C@]12C` [TCA, taurocholate] was run?
**A.** more than 100 fold

**Q.** And the “affinity of mOATP1B2 lower than that of rOATP1B2” value ([1]; ratio of Km values mOATP1B2/rOATP1B2)?
**A.** 4.6 fold

**Q.** What about the “uptake compared to vector-transfected control cells” value [2] of the same compound?
**A.** > 70 fold

**Q.** And the “uptake compared to vector-transfected control cells” value ([3]; hOATP1B3, 0.01 µM substrate)?
**A.** 2.7 fold

**Q.** And the “uptake over control cells / substrate status” value ([3]; hOATP1B3, substrate concentration not stated at the place)?
**A.** 2-3 fold

**Q.** What about the Km at 10 min ([3]; human, pH 7.4) of the same compound?
**A.** 21 ± 8 µM
